Experimental data taken from article PMC6934184, “Selective DNA-PKcs inhibition extends the therapeutic index of localized radiotherapy and chemotherapy” (The Journal of Clinical Investigation, 2019).

Target: T1, MAP2K1 (MEK1) S218D S222D (Homo sapiens, UniProt Q02750, S218D/S222D)
T1 construct: purchased Thermo Fisher Scientific (Life Technologies) SelectScreen
Assay: SelectScreen LanthaScreen
Assay type: binding
Details: read-out: % displacement
Procedure, shortened: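 Percent values come from Thermo SelectScreen profiling of NU5455, combining activity and binding assays. CSF1R was run in Z'LYTE format at Km app ATP, and CAMK1 in Adapta format with ATP listed at 10.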

T1 sequence (Q02750 whole entry S218D/S222D): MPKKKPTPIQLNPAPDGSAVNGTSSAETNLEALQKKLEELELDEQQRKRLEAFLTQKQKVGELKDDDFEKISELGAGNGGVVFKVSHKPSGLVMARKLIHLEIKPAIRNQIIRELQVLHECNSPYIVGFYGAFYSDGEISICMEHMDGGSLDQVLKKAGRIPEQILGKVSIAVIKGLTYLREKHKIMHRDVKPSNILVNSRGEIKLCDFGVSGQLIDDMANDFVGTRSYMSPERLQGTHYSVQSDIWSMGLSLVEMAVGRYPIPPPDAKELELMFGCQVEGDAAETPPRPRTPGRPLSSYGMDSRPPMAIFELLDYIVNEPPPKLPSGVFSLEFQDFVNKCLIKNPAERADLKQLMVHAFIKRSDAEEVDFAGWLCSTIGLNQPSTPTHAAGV

SMILES: CN(C(=O)CN1CCOCC1)c1ccc2sc3c(-c4cccc5c(=O)cc(N6CC7CCC(C6)O7)oc45)cccc3c2c1 [NU5455]
- inhibition at 1 µM: -0.1%
